Drawing on patent US11149027B2, “Heterocyclic compound” (Sumitomo Chemical Company, Limited, priority 2016, dated 2021), this text covers mortality of insects for four compounds.

For data set [1], the system named is houseflies (Musca domestica). In words: Test Example 10: treated filter paper with sucrose, houseflies. Type of data set: in vivo. The settings on record: 500 ppm, 0.7 ml on filter paper with sucrose, female adult, after 24 hours. Here is the method: (§1) Test compounds are made to a formulation according to a similar method to that described in the Formulation example 5, and thereto is added water to prepare a diluted solution containing a prescribed concentration of the test compound.
A filter paper having a diameter of 5.5 cm in diameter is spread on the bottom of the cup, and 30 mg of sucrose is placed on the filter paper, and then 0.7 ml of the diluted solutions are added dropwise to the filter paper. Ten (10) houseflies (Musca domestica) female adult are released into the cup. After 24 hours, the number of the died insects is counted, and the mortality of insects is calculated by the following equation. Mortality (%)=(Number of died insects/test insects)×100

The test system of data set [2] is brown planthoppers (Nilaparvata lugens). Description: Test Example 4: root uptake by rice seedling from diluted solution, brown planthoppers. Type of data set: in vivo. The settings on record: 1000 ppm, 5 mL diluted solution under rice seedling, third instar larvae released after 7 days, examined after 6 days. Here is the method: as §1
The diluted solution 5 mL is added to one cup, and Rice (Oryza sativa) seedling (on the developmental stage of the second true leaf) is planted in the other cup with a hole on the bottom and the other cup is placed on the cup. After 7 days, 20 brown planthoppers (Nilaparvata lugens) at the third instar larval stage are released onto the seedling. After 6 days, the number of the surviving insects is examined, and the mortality is calculated by the following equation. Mortality (%)={1−Number of surviving insects/20}×100

A value given as a limit tells only on which side of the number the result lay.

Regarding `CCS(=O)(=O)c1cccnc1-c1ccc(-n2ccc(C(F)(F)F)n2)nn1` [compound 2], in data set [1], the mortality of insects was found to be 100%.
Take `CCS(=O)(=O)c1cccnc1-c1ccc(-n2cnc(C(F)(F)F)n2)nn1` [compound 4]: the mortality of insects in data set [1] came out at 100%.
For `CCS(=O)(=O)c1cccnc1-c1ccc(-n2cnc(C(F)(F)F)c2)nn1` [compound 7], the mortality of insects in data set [1] is 100%.
As for `CCS(=O)(=O)c1cccnc1-c1ccc(-n2cc(C(F)(F)F)cn2)nn1` [compound 9], the mortality of insects in data set [1] is 100%; in data set [2] it was at least 90%.
